Measured values from the supplement of paper PMC10307832.

Assays:
Assay in all cases: relative viability (nuclei count vs DMSO), 5 days (fraction); higher = more cells survive
201T = system: 201T
Outline: (§1)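 Lung cancer cell lines in 1536-well plates were dosed by pin tool the day after seeding, either with one drug alone or with a fixed anchor-drug dose plus five library-drug doses (not always all listed) in √10 steps. After 5 days, cells were fixed and their nuclei stained in one step (final 0.05% Triton X-100, 1% formaldehyde, 1 ug/ml Hoechst), then counted on 4× images. Relative viability is the nuclei count in treated wells divided by that in vehicle wells. Values are medians of duplicate plates.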

BEN = system: BEN
Outline: as §1

COR-L 105 = system: COR-L 105
Outline: as §1

COR-L23 = system: COR-L23
Outline: as §1

EKVX = system: EKVX
Outline: as §1

HARA = system: HARA
Outline: as §1

HCC-15 = system: HCC-15
Outline: as §1

HCC-366 = system: HCC-366
Outline: as §1

HCC-78 = system: HCC-78
Outline: as §1

HCC-827 = system: HCC-827
Outline: as §1

LC-2-ad = system: LC-2-ad
Outline: as §1

LU99A = system: LU99A
Outline: as §1

LXF-289 = system: LXF-289
Outline: as §1

NCI-H1650 = system: NCI-H1650
Outline: as §1

NCI-H1734 = system: NCI-H1734
Outline: as §1

NCI-H1755 = system: NCI-H1755
Outline: as §1

NCI-H1975 = system: NCI-H1975
Outline: as §1

NCI-H1993 = system: NCI-H1993
Outline: as §1

NCI-H3122 = system: NCI-H3122
Outline: as §1

NCI-H596 = system: NCI-H596
Outline: as §1

RERF-LC-KJ = system: RERF-LC-KJ
Outline: as §1

SK-LU-1 = system: SK-LU-1
Outline: as §1

For `O=c1[nH]c2ccccc2n1C1CCN(CCCC(c2ccc(F)cc2)c2ccc(F)cc2)CC1` [Pimozide] + CC(C)C[C@H](NC(=O)[C@H](Cc1ccccc1)NC(=O)c1cnccn1)B(O)O [Bortezomib] (partner 0.002 µM), the relative viability (201T; first compound 0.08 µM) was 1.07, the relative viability (201T; first compound 0.253 µM) was 1.05 and the relative viability (201T; first compound 0.8 µM) was 1.02. For the same compound, the relative viability (201T; first compound 2.53 µM) was 1.08, the relative viability (201T; first compound 8 µM) was 1.01 and the relative viability (BEN; first compound 0.08 µM) was 0.678. The relative viability (BEN; first compound 0.253 µM) was 0.81, the relative viability (BEN; first compound 0.8 µM) was 0.788 and the relative viability (BEN; first compound 2.53 µM) was 0.867. The relative viability (BEN; first compound 8 µM) was 0.976, the relative viability (COR-L 105; first compound 0.253 µM) was 0.749 and the relative viability (COR-L 105; first compound 0.8 µM) was 0.659. For the same compound, the relative viability (COR-L 105; first compound 2.53 µM) was 0.672, the relative viability (COR-L 105; first compound 8 µM) was 0.479 and the relative viability (COR-L23; first compound 0.08 µM) was 0.965. For the same compound, the relative viability (COR-L23; first compound 0.253 µM) was 0.945, the relative viability (COR-L23; first compound 0.8 µM) was 0.956 and the relative viability (COR-L23; first compound 2.53 µM) was 0.967. The relative viability (COR-L23; first compound 8 µM) was 0.964, the relative viability (EKVX; first compound 0.253 µM) was 1.11 and the relative viability (EKVX; first compound 0.8 µM) was 0.992. For the same compound, the relative viability (EKVX; first compound 2.53 µM) was 0.994, the relative viability (EKVX; first compound 8 µM) was 0.937 and the relative viability (HARA; first compound 0.08 µM) was 0.857. It also gave a relative viability (HARA; first compound 0.253 µM) of 1.16, a relative viability (HARA; first compound 0.8 µM) of 0.937 and a relative viability (HARA; first compound 2.53 µM) of 1.17. The relative viability (HARA; first compound 8 µM) was 1.06, the relative viability (HCC-15; first compound 0.08 µM) was 1.12 and the relative viability (HCC-15; first compound 0.253 µM) was 0.994. The relative viability (HCC-15; first compound 0.8 µM) was 0.848, the relative viability (HCC-15; first compound 2.53 µM) was 0.963 and the relative viability (HCC-15; first compound 8 µM) was 0.908. The relative viability (HCC-366; first compound 0.08 µM) was 1.01, the relative viability (HCC-366; first compound 0.253 µM) was 0.999 and the relative viability (HCC-366; first compound 0.8 µM) was 0.985. The relative viability (HCC-366; first compound 2.53 µM) was 1.03, the relative viability (HCC-366; first compound 8 µM) was 1.01 and the relative viability (HCC-78; first compound 0.08 µM) was 0.408. The relative viability (HCC-78; first compound 0.253 µM) was 0.417, the relative viability (HCC-78; first compound 0.8 µM) was 0.409 and the relative viability (HCC-78; first compound 2.53 µM) was 0.443. It also gave a relative viability (HCC-78; first compound 8 µM) of 0.336, a relative viability (HCC-827; first compound 0.253 µM) of 0.943 and a relative viability (HCC-827; first compound 0.8 µM) of 0.918. For the same compound, the relative viability (HCC-827; first compound 2.53 µM) was 0.982, the relative viability (HCC-827; first compound 8 µM) was 1.04 and the relative viability (LC-2-ad; first compound 0.08 µM) was 1.09. For the same compound, the relative viability (LC-2-ad; first compound 0.253 µM) was 0.927, the relative viability (LC-2-ad; first compound 0.8 µM) was 0.935 and the relative viability (LC-2-ad; first compound 2.53 µM) was 1.03. The relative viability (LC-2-ad; first compound 8 µM) was 0.996, the relative viability (LU99A; first compound 0.08 µM) was 1.17 and the relative viability (LU99A; first compound 0.253 µM) was 0.978. The relative viability (LU99A; first compound 0.8 µM) was 1.09, the relative viability (LU99A; first compound 2.53 µM) was 1.09 and the relative viability (LU99A; first compound 8 µM) was 0.929. The relative viability (LXF-289; first compound 0.08 µM) was 0.989, the relative viability (LXF-289; first compound 0.253 µM) was 0.966 and the relative viability (LXF-289; first compound 0.8 µM) was 0.917. It also gave a relative viability (LXF-289; first compound 2.53 µM) of 0.94, a relative viability (LXF-289; first compound 8 µM) of 0.865 and a relative viability (NCI-H1650; first compound 0.08 µM) of 0.23. It also gave a relative viability (NCI-H1650; first compound 0.253 µM) of 0.204, a relative viability (NCI-H1650; first compound 0.8 µM) of 0.188 and a relative viability (NCI-H1650; first compound 2.53 µM) of 0.177. It also gave a relative viability (NCI-H1650; first compound 8 µM) of 0.178, a relative viability (NCI-H1734; first compound 0.08 µM) of 0.903 and a relative viability (NCI-H1734; first compound 0.253 µM) of 0.958. It also gave a relative viability (NCI-H1734; first compound 0.8 µM) of 0.916, a relative viability (NCI-H1734; first compound 2.53 µM) of 0.993 and a relative viability (NCI-H1734; first compound 8 µM) of 0.844. It also gave a relative viability (NCI-H1755; first compound 0.08 µM) of 0.881, a relative viability (NCI-H1755; first compound 0.253 µM) of 0.91 and a relative viability (NCI-H1755; first compound 0.8 µM) of 0.844. The relative viability (NCI-H1755; first compound 2.53 µM) was 0.937, the relative viability (NCI-H1755; first compound 8 µM) was 0.674 and the relative viability (NCI-H1975; first compound 0.08 µM) was 0.338. It also gave a relative viability (NCI-H1975; first compound 0.253 µM) of 0.39, a relative viability (NCI-H1975; first compound 0.8 µM) of 0.398 and a relative viability (NCI-H1975; first compound 2.53 µM) of 0.337. For the same compound, the relative viability (NCI-H1975; first compound 8 µM) was 0.355, the relative viability (NCI-H1993; first compound 0.08 µM) was 0.89 and the relative viability (NCI-H1993; first compound 0.253 µM) was 1.03. For the same compound, the relative viability (NCI-H1993; first compound 0.8 µM) was 0.986, the relative viability (NCI-H1993; first compound 2.53 µM) was 1.07 and the relative viability (NCI-H1993; first compound 8 µM) was 1.01. It also gave a relative viability (NCI-H3122; first compound 0.08 µM) of 0.983, a relative viability (NCI-H3122; first compound 0.253 µM) of 0.959 and a relative viability (NCI-H3122; first compound 0.8 µM) of 1.01. For the same compound, the relative viability (NCI-H3122; first compound 2.53 µM) was 0.981, the relative viability (NCI-H3122; first compound 8 µM) was 1.01 and the relative viability (NCI-H596; first compound 0.08 µM) was 0.974. The relative viability (NCI-H596; first compound 0.253 µM) was 0.968, the relative viability (NCI-H596; first compound 0.8 µM) was 1 and the relative viability (NCI-H596; first compound 2.53 µM) was 0.994. The relative viability (NCI-H596; first compound 8 µM) was 0.935, the relative viability (RERF-LC-KJ; first compound 0.08 µM) was 1.1 and the relative viability (RERF-LC-KJ; first compound 0.253 µM) was 0.92. For the same compound, the relative viability (RERF-LC-KJ; first compound 0.8 µM) was 0.949, the relative viability (RERF-LC-KJ; first compound 2.53 µM) was 1.02 and the relative viability (RERF-LC-KJ; first compound 8 µM) was 0.92. It also gave a relative viability (SK-LU-1; first compound 0.08 µM) of 1.09, a relative viability (SK-LU-1; first compound 0.253 µM) of 1.21 and a relative viability (SK-LU-1; first compound 0.8 µM) of 0.741. The relative viability (SK-LU-1; first compound 2.53 µM) was 0.899 and the relative viability (SK-LU-1; first compound 8 µM) was 1.11.
